Data on 17 compounds can be found in patent publication US6525070B2, “Bipiperidine derivatives as modulators of CCR3 activity and as H1 antagonists” (AstraZeneca AB, priority 2000, dated 2003).

The melting point is the temperature, or range, at which the solid turns liquid.

`CS(=O)(=O)c1ccccc1C(=O)N1CCC(N2CCC(Oc3ccc(Cl)c(Cl)c3)CC2)CC1` [Compound 293 of Table I, [4-(3,4-dichloro-phenoxy)-[1,4′]bipiperidinyl-1′-yl]-(2-methanesulfonyl-phenyl)-methanone] returned a melting point of 78 to 80 °C.
For `O=S(=O)(c1ccc(-c2ccccn2)s1)N1CCC(N2CCC(Oc3ccc(F)c(F)c3)CC2)CC1` [Compound 3 of Table II, 4-(3,4-difluoro-phenoxy)-1′-(5-pyridin-2-yl-thiophene-2-sulfonyl)-[1,4′]bipiperidinyl], the melting point is 126 to 127 °C.
The figure for `CS(=O)(=O)c1cccc(NC(=O)N2CCC(N3CCC(Oc4ccc(Cl)c(Cl)c4)CC3)CC2)c1` [Compound 54 of Table IV, 4-(3,4-dichloro-phenoxy)-[1,4′]bipiperidinyl-1′-carboxylic acid (3-methanesulfonyl-phenyl)-amide] is 73 to 75 °C; for `CS(=O)(=O)c1ccc(C(=O)N2CCC(N3CCC(Oc4ccc(Cl)c(Cl)c4)CC3)CC2)s1` [Compound 332 of Table I, [4-(3,4-dichloro-phenoxy)-[1,4′]bipiperidinyl-1′-yl]-(2-methanesulfonyl-thiophen-5-yl)-methanone] it is 82 to 83 °C.
The figure for `COc1cc(C(=O)N2CCC(N3CCC(Oc4ccc(Cl)cc4C)CC3)CC2)ccc1N.O=C(O)C(F)(F)F.O=C(O)C(F)(F)F` is 110 to 111 °C; for `Cc1cccc(OC2CCN(C3CCN(C(=O)c4cccc(S(C)(=O)=O)c4)CC3)CC2)n1.O=C(O)C(F)(F)F` it is 94 to 95 °C.
In the case of `Cc1cc(Cl)ccc1OC1CCN(C2CCN(C(=O)c3cccc(S(C)(=O)=O)c3)CC2)CC1` [Compound 1 of Table IV, [4-(4-chloro-2-methyl-phenoxy)-[1,4′]bipiperidinyl-1′-yl]-(3-methanesulfonyl-phenyl)-methanone], the melting point lay in the range of 64 to 65 °C.
Take `O=C(C(CN1CCNCC1)c1ccccc1)N1CCC(N2CCC(Oc3ccc(Cl)c(Cl)c3)CC2)CC1` (centres unmarked) [Compound 595 of Table I, 1-[4-(3,4-dichloro-phenoxy)-[1,4′]bipiperidinyl-1′-yl]-2-phenyl-3-piperazin-1-yl-propan-1-one]: the melting point was 76 to 77 °C.
`O=S(=O)(c1ccc(-c2ccccn2)s1)N1CCC(N2CCC(Oc3ccc(Cl)c(Cl)c3)CC2)CC1` [Compound 280 of Table I, 4-(3,4-dichloro-phenoxy)-1′-(5-pyridin-2-yl-thiophene-2-sulfonyl)-[1,4′]bipiperidinyl] came in with a melting point of 149 to 150 °C.
Next, `CS(=O)(=O)Nc1cccc(C(=O)N2CCC(N3CCC(Oc4ccc(Cl)c(Cl)c4)CC3)CC2)c1` [Compound 583 of Table I, N-{3-[4-(3,4-dichloro-phenoxy)-[1,4′]bipiperidinyl-1′-carbonyl]-phenyl}-methanesulfonamide]: 150 to 152 °C; `CS(=O)(=O)Nc1ccccc1C(=O)N1CCC(N2CCC(Oc3ccc(Cl)c(Cl)c3)CC2)CC1` [Compound 587 of Table I, N-{2-[4-(3,4-dichloro-phenoxy)-[1,4′]bipiperidinyl-1′-carbonyl]-phenyl}-methanesulfonamide]: 219 to 220 °C; `CS(=O)(=O)n1cc(C(=O)N2CCC(N3CCC(Oc4ccc(Cl)c(Cl)c4)CC3)CC2)c2ccccc21.Cl`: 104 to 105 °C.
Next, `CC(=O)O.CS(=O)(=O)c1cccc(C(=O)N2CCC(N3CCC(Oc4ccc(Cl)c(Cl)c4)CC3)CC2)c1`: 111 to 112 °C; `O=C(Nc1ccccc1)N1CCC(N2CCC(Oc3ccc(Cl)c(Cl)c3)CC2)CC1` [Compound 309 of Table IV, 4-(3,4-dichloro-phenoxy)-[1,4′]bipiperidinyl-1′-carboxylic acid phenylamide]: 111 to 112 °C.
Next, `CCn1cc(C(=O)N2CCC(N3CCC(Oc4ccc(Cl)c(Cl)c4)CC3)CC2)c(=O)c2ccc(C)nc21` [Compound 534 of Table I, 3-[4-(3,4-dichloro-phenoxy)-[1,4′]bipiperidinyl-1′-carbonyl]-1-ethyl-7-methyl-1H-[1,8]naphthyridin-4-one]: 189 to 190 °C; `CS(=O)(=O)c1cccc(C(=O)N2CCC(N3CCC(Oc4ccc(C(F)(F)F)cc4C#N)CC3)CC2)c1.O=C(O)C(F)(F)F`: 140 to 142 °C; `CC(=O)O.COc1cc(C(=O)N2CCC(N3CCC(Oc4ccc(Cl)c(Cl)c4)CC3)CC2)ccc1N`: 181 to 182 °C.
